Key:
[1] = test system: PC3 (Prostate Tumour); test: In vitro inhibition of tumour cell proliferation, PC3; type: cell-based
[2] = test system: MCF7 (Breast Tumour); test: In vitro inhibition of tumour cell proliferation, MCF7; type: cell-based
[3] = test system: Rheumatoid Arthritis Synovial Fibroblast (RASF); test: In vitro inhibition of rheumatoid arthritis synovial fibroblast (RASF) proliferation; type: cell-based
[4] = test system: A549 (Lung Tumour); test: In vitro inhibition of tumour cell proliferation, A549; type: cell-based
[5] = test system: IL-23 production in hPBMCs; test: Inhibition of IL-23 production from anti-CD3-stimulated hPBMCs; type: cell-based, human; settings: hPBMCs stimulated with anti-CD3
Protocol: (§1) 2) Anti-Inflammatory Activity: Inhibition of the Production of Pro-Inflammatory Cytokines from Stimulated Human Peripheral Blood Mononuclear Cells (hPBMCs)
(§2) Compounds were tested at a concentration of 1 uM for cytokine release inhibition in hPBMCs stimulated with LPS (TNFα), PHA (IFNγ) and anti-CD3 (IL-17A, IL-17F, IL-21, IL-23): […]

[6] = test system: IFNγ production in hPBMCs; test: Inhibition of IFNγ production from PHA-stimulated hPBMCs; type: cell-based, human; settings: hPBMCs stimulated with PHA
Protocol: as §1, §2

[7] = test system: IL-17A production in hPBMCs; test: Inhibition of IL-17A production from anti-CD3-stimulated hPBMCs; type: cell-based, human; settings: hPBMCs stimulated with anti-CD3
Protocol: as §1, §2

[8] = test system: TNFα production in hPBMCs; test: Inhibition of TNFα production from LPS-stimulated hPBMCs; type: cell-based, human; settings: hPBMCs stimulated with LPS
Protocol: as §1, §2

[9] = test system: IL-17F production in hPBMCs; test: Inhibition of IL-17F production from anti-CD3-stimulated hPBMCs; type: cell-based, human; settings: hPBMCs stimulated with anti-CD3
Protocol: as §1, §2

[10] = test system: IL-21 production in hPBMCs; test: Inhibition of IL-21 production from anti-CD3-stimulated hPBMCs; type: cell-based, human; settings: hPBMCs stimulated with anti-CD3
Protocol: as §1, §2

## c1cc(-c2nc(N3CCOCC3)c3oc4ncc(CN5CCOCC5)cc4c3n2)c2cc[nH]c2c1 [K, 2-(1H-Indol-4-yl)-4-morpholin-4-yl-8-morpholin-4-ylmethyl-pyrido[3′,2′:4,5]furo[3,2-d]pyrimidine]
[1]
  IC50: 3340 nM
[2]
  IC50: 352 nM
[3]
  IC50: 3020 nM
[4]
  IC50: 682 nM

## (E)-1-(4-Methyl-piperazin-1-yl)-3-[4-morpholin-4-yl-2-(1H-pyrrolo[2,3-b]pyridin-4-yl)-pyrido[3′,2′:4,5]furo[3,2-d]pyrimidin-8-yl]-propenone
[5]
  % Inhibition of Proinflammatory Cytokine Production at 1 uM, IL-23: 93%
[6]
  % Inhibition of Proinflammatory Cytokine Production at 1 uM, IFNγ: 67%
[7]
  % Inhibition of Proinflammatory Cytokine Production at 1 uM, IL-17A: 77%
[8]
  % Inhibition of Proinflammatory Cytokine Production at 1 uM, TNFα: 74%
[9]
  % Inhibition of Proinflammatory Cytokine Production at 1 uM, IL-17F: 74%
[10]
  % Inhibition of Proinflammatory Cytokine Production at 1 uM, IL-21: 82%

— patent US9938290B2, “Tricyclic heterocyclic compounds as phosphoinositide 3-kinase inhibitors” (Karus Therapeutics Limited, priority 2009, dated 2018)
